Results as given in patent publication US5659041A, “Hydrazino-type radionuclide chelators having an N3 S configuration” (Resolution Pharmaceuticals, Inc., priority 1994, dated 1997).
Values belong to the molecule of their own block, whether it stands above or below them. Numbered stars: 1 amine (or outer) side, 2 acyl side, 3 side chain; on linkers, the order of the positions; unused ones are H or OH. Square brackets hold non-standard residues; d marks the D form. Peptide text beside a SMILES is read from it. X2 = CN(N[*:1])c1ccc(C(=O)[*:2])cn1; X1 = O=C(CSCN[*:1])[*:2]

Legend:
[1] = In vivo distribution of 99mTc labeled chelators within rats; design: species or system male Wistar rats; details: rat, i.v. tail vein
Protocol: Distribution within rats of selected chelators and a reference chelator was determined using established protocols. Briefly, male Wistar rats (Charles River, 200 g) were anesthetized with somnitol (40 to 50 mg/kg) and 200 μL of the labeled chelator (ie. 200 μCi) was injected intravenously via the tail vein. Serial whole-body scintigrams were acquired for first 10 minutes. After further images were obtained at 60 and 120 minutes, the rat was killed with anesthesia and samples of organs (blood, heart, lung, liver, spleen, kidney, muscle, GI tract) were weighed and counted in either a well-type gamma counter or in a gamma dose calibrator. Dose calculations were made based On the assumption that rats weighed 200 g and that the blood volume constituted 8% body weight. All results were corrected for the residual dose in the tail.

[2] = Extent of complexation of 99mTc with chelators (radioactivity of eluted C-18 Sep-Pak fractions); type: physicochemical; details: for Chelator (EtOH-saline eluate), percent of total / Chelator (EtOH-saline eluate), radioactivity / TcO2, percent of total / TcO2, radioactivity / TcO4- (HCl eluate), percent of total / TcO4- (HCl eluate), radioactivity of eluted fraction: Example 2: SnCl2, pH 6, Example 4: sodium dithionite, pH 12-13, 75° C.
Protocol: The chelator N-(S-benzoylmercaptoacetyl)-glycyl-2-pyridylhydrazide (example 2, 1 mg) was dissolved in EtOH-water and hydrolyzed by heating with NaOH, after which the reaction mixture was neutralized with acetic acid to pH 6. 350 μg hydrolyzed chelator was reacted with 103 MBq TcO4^- and 10 μg SnCl2 at room temperature. […] To achieve adequate separation of the chelator, the solution was then loaded on a C-18 SepLPak column which was eluted with dilute HCI to remove Tc04-. Subsequent elution with 1:1 EtOH-saline removed the chelator while Tc02 remained on the column.
Another chelator was similarly labeled. Particularly, 300 μg of the hydrolyzed chelator N-(S-benzoylmercaptoacetyl)-glycyl-3-(6-chloropyridazyl)-hydrazide (example 4) was adjusted to pH 12-13 and reduced with 100 μg of sodium dithionite for 10 minutes at 75° C. The resulting mixture was then loaded on a C-18 Sep-Pak column and eluted with dilute HCI followed by EtOH-saline. The extent of complexation of ^99m Tc with chelators was measured by radioactivity of the eluted fractions; results are shown in the table below.

[3] = Labeling of chelator-conjugate with 99mTc (HPLC radioactivity of fractions); type: physicochemical; details: pertechnetate, stannous gluconate, boiling water bath 12 minutes
Protocol: The chelator-conjugate of example 11 (200 μL, 1 mg/mL saline) was injected into a 3 mL vacutainer with 100 μL pertechnetate (10 mCi) and 100 μL stannous gluconate (50 μg stannous chloride and 1 mg sodium gluconate). The tube was placed in a boiling water bath for 12 minutes and then filtered through a Watman PVDF syringe filter to collect the labeled conjugate solution which was further diluted with saline to prepare an injectable solution (2 Mbq/mL). The chelator-conjugate was isolated by HPLC (Beckman) from a (20 μL) sample (before dilution) to determine the labeling yield by measuring radioactivity of the fractions. 70.8%, 5.1% and 15.0% of the label was found in each of three fractions eluted for a 90.9% total labeling yield.

[4] = test system: "Tuftsin" receptors on leukocytes; experiment: Binding of TKPPR peptide to Tuftsin receptors on leukocytes
[5] = 200 μCi, organs counted after 120 minutes images

dose in the liver and GI tract [1, 5]: About 70%
Chelator (EtOH-saline eluate), percent of total [2]: 78%
Chelator (EtOH-saline eluate), radioactivity [2]: 14.19 MBq
TcO2, percent of total [2]: 14%
TcO2, radioactivity [2]: 2.55 MBq
TcO4- (HCl eluate), percent of total [2]: 8%
TcO4- (HCl eluate), radioactivity of eluted fraction [2]: 1.38 MBq
Molecule: O=C(CSC(=O)c1ccccc1)NCC(=O)NNc1ccc(Cl)nn1 [Example 4, N-(S-benzoylmercaptoacetyl)-glycyl-3-(6-chloropyridazyl)-hydrazide]
clearance from the blood (and other tissues) ([1]; 200 μCi): fastest clearance from the blood and other tissues
route of elimination ([1]; 200 μCi): mainly eliminated through the liver and GI tract

accumulation in the kidney ([1]; 200 μCi, compared with the other chelators): greatest accumulation in the kidney
Molecule: COC(=O)CC[C@H](NC(=O)CSC(=O)c1ccccc1)C(=O)NNc1ccccn1 [Example 3, No(S-benzoylmercaptoacetyl)-L-glutamyl-(gamma-methyl ester)-2-pyridylhydrazide]

dose in the liver and GI tract [1, 5]: about 60%
dose remaining in the blood [1, 5]: about 6%
Chelator (EtOH-saline eluate), percent of total [2]: 68%
Chelator (EtOH-saline eluate), radioactivity [2]: 27.6 MBq
TcO2, percent of total [2]: 31%
TcO2, radioactivity [2]: 12.5 MBq
TcO4- (HCl eluate), percent of total [2]: 1%
TcO4- (HCl eluate), radioactivity of eluted fraction [2]: 0.15 MBq
Molecule: O=C(CSC(=O)c1ccccc1)NCC(=O)NNc1ccccn1 [Example 2, N-(S-benzoylmercaptoacetyl)-glycyl-2-pyridylhydrazide]
activity present as TcO2 ([2]; SnCl2 at room temperature, pH 6, did not change after heating 10 minutes at 80° C.): Approximately half activity was present as TcO2

dose localized in the GI tract [1, 5]: 55%
dose remaining in the blood [1, 5]: about 10%
Molecule: COC(=O)CC[C@H](NC(=O)CSC(=O)c1ccccc1)C(=O)NNc1ccc(Cl)nn1 [Example 5, N-(S-benzoylmercaptoacetyl)-L-glutamyl-(gamma-methylester)-3-(6-chloropyridazyl)-hydrazide]

Molecule: CC(=O)NCSCC(=O)N[C@@H](CO)C(=O)NN(C)c1ccc(C(=O)NCC(=O)N[C@H](C(=O)N[C@@H](CCCCN)C(=O)N2CCC[C@H]2C(=O)N2CCC[C@H]2C(=O)N[C@@H](CCCNC(=N)N)C(=O)O)[C@@H](C)O)cn1 [Example 11, S-Acm-Mercaptoacetyl-Ser-N-methylhydrazino nicotinic acid- Gly--Thr--Lys--Pro--Pro--Arg] (Ac-[X1]S[X2]GTKPPR-OH)
total labeling yield [3]: 90.9%

retention in the blood pool ([1]; reference chelator lacking hydrazide): extensively retained in the blood pool
Molecule: O=C(CNC(=O)CSC(=O)c1ccccc1)NCc1ccccn1 [N-(S-benzoylmercaptoacetyl)-glycyl-2-pyridylmethylamide, reference compound]

binding to "Tuftsin" receptors on leukocytes [4]: binds particularly well
Molecule: TKPPR
